Source: patent US20180064742A1, “PET IMAGING TRACER FOR IMAGING PROSTATE CANCER” (THE REGENTS OF THE UNIVERSITY OF CALIFORNIA, priority 2015, published 2018)

System: tumors
Assay: In vivo accumulation in tumors versus benign tissue, with tumor alkalinization models
Excerpt: Solid tumors are hypoxic with altered metabolism, resulting in secretion of acids into the extracellular matrix and lower relative pH, a feature associated with local invasion and metastasis. Therapeutic and diagnostic agents responsive to this microenvironment may improve tumor-specific delivery. In various embodiments, the invention reflects a general strategy whereby caged small-molecule drugs or imaging agents liberate their parent compounds in regions of low interstitial pH. In this manuscript, we present a new acid-labile prodrug method based on the glycosylamine linkage, and its application to a class of positron emission tomography (PET) imaging tracers, termed [^18F] fluorodeoxyglycosyl amines ([^18F] FDG amines). [^18F]FDG amines operate via a proposed two-step mechanism, in which an acid-labile precursor decomposes to form a common radiotracer, e.g., 2-deoxy-2-[18F]fluoro-D-glucose, which is subsequently accumulated by glycan, e.g., glucose, avid cells. […]
Imaging was performed using standard micro-positron emission tomography (microPET) techniques and data analysis. […] The resulting images are analyzed using open source Amide software (FIGS. 6, 13). For quantification of uptake in tissues, regions of interest (ROI) are drawn over tissues using the CT portion of the exam. […]

SMILES: OC[C@H]1OC(NCc2ccc(-c3ccccc3)cc2)[C@H]([18F])[C@@H](O)[C@@H]1O (some centres unmarked)
- relative accumulation in tumors over benign tissue (in vivo): greater relative accumulation in tumors over benign tissue
- effect of tumor alkalinization on tumor accumulation (sodium bicarbonate treatment, or overexpression of carbonic anhydrase): could be attenuated upon tumor alkalinization
